Source: ChEMBL document CHEMBL1156519, “Roles for two aminopeptidases in vacuolar hemoglobin catabolism in Plasmodium falciparum” (J Biol Chem, 2007)
pEC50: −log10 of the molar value. The source made the active and inactive calls. The rule behind the calls is not given here. Peptide text beside a SMILES is read from it. * marks the point of attachment. CH2F = FC*

Legend:
[1] = Inhibition of DPAP1 assessed as blocking of release of beta-naphthylamine from Ala-Pro-Ala-betaNA substrate at 1 uM
Plasmodium falciparum [2] = assay: Antimalarial activity as DNA content of ring stage Plasmodium falciparum 3D7 in medium with all amino acids by flow cytometry; assay type: functional, organism-based
[3] = Inhibition of DPAP1 assessed as blocking of release of beta-naphthylamine from Ala-Pro-Ala-betaNA substrate at 1 uM in presence of recombinant Plasmodium falciparum aminopeptidase P
Plasmodium falciparum [4] = assay: Antimalarial activity as inhibition of Plasmodium falciparum 3D7 replication in medium + isoleucine after 65 hrs; assay type: functional, organism-based; details: 3D7, 65 h
Plasmodium falciparum [5] = assay: Antimalarial activity as inhibition of Plasmodium falciparum 3D7 replication in medium with all amino acids after 65 hrs; assay type: functional, organism-based; details: 3D7, 65 h
Plasmodium falciparum [6] = assay: Antimalarial activity as DNA content of ring stage Plasmodium falciparum 3D7 in medium + isoleucine by flow cytometry; assay type: functional, organism-based
Plasmodium falciparum [7] = assay: Inhibition of aminopeptidase N in Plasmodium falciparum food vacuole extract

CC(C)C[C@H](NC(=O)[C@@H](O)[C@H](N)Cc1ccccc1)C(=O)O [UBENIMEX]
Activity [1]: inactive
Activity (Plasmodium falciparum [2]): Active
Activity [3]: inactive
pEC50 (Plasmodium falciparum [4]): 6.05
pEC50 (Plasmodium falciparum [5]): 5.74
Activity (Plasmodium falciparum [6]): Active
Activity (Plasmodium falciparum [7]): Active

CC(C)C[C@H](NC(=O)[C@H]1O[C@@H]1C(=O)O)C(=O)NCCCCN=C(N)N
Activity [1]: inactive
Activity [3]: inactive

N=C(N)NCCC[C@H](NC(=O)[C@@H]1CCCN1)C(=O)CF (H-Pro-Arg-CH2F)
Activity [1]: Active
Activity [3]: Active

CC(C)CC(=O)N[C@H](C(=O)N[C@H](C(=O)N[C@@H](CC(C)C)[C@@H](O)CC(=O)N[C@@H](C)C(=O)N[C@@H](CC(C)C)[C@@H](O)CC(=O)O)C(C)C)C(C)C
Activity [1]: inactive
